System: primary astrocytes
Test: Activation of cultured primary astrocytes, mRNA expression
Assay type: cell-based, mouse
Settings: for transcriptional response of astrocytes to LPS/IFNγ: 1 h pre-treatment (PDMP 25 μM; LacCer 10 μM), LPS 100 ng/ml and IFNγ 100 Units/ml, 6 h
Method: FIGS. 3a-m. LacCer produced by B4GALT6 acts in an autocrine manner to boost astrocyte activation. Cultured astrocytes were pre-treated for 1 h with PDMP (25 μM), LacCer (10 μM), both (LacCer+PDMP), or vehicle (vehicle), followed by activation with lipopolysaccharide (100 ng/ml) and Interferon-γ (100 Units/ml) (LPS/IFNγ) or left un-treated (control). (a) Heatmap depicting mRNA expression, as detected by Nanostring nCounter analysis, in astrocytes stimulated with LPS/IFNγ. Representative data of three independent experiments. (b) Histogram presentation of the normalized gene expression presented in (a), statistical analysis by one-way ANOVA followed by Tukey post-hoc analysis. (c-i) The expression of B4galt5 (shB4galt5), B4galt6 (shB4galt6) or non-targeting shRNA (ShControl) in C8-D30 astrocytes was knocked-down using verified shRNA (n≥4). (c) qRT analysis of B4galt5 and B4galt6 mRNA expression. (d-f) astrocytes were activated as in (a) and mRNA expression for (d) H2-Aa, (e) Ccl5 and (f) Cxcl10 was determined; expression is presented relative to house keeping gene (Gapdh) (n≥4). (g) Schematic map of the astrocyte-specific shRNA lentiviral vector. […] NOD mice were injected i.c.v. with 1×10^7 IU of shControl, shB4galt5 or shB4galt6 lentivirus, at day 35 after EAE induction (progressive phase). n=10 mice per group (h, i) 10 days after i.c.v. injection experiment was terminated and (h) b4galt5 and b4galt6 expression levels were determined by qPCR in astrocytes isolated from naïve or EAE NOD mice; expression normalized to gapdh and presented relative to that of cells from naïve mice. Representative data of two independent experiments, Statistical analysis by one-way ANOVA, followed by Tukey post-hoc analysis. (i) LacCer levels were quantified of in the CNS of naïve or EAE NOD mice treated as shown in (j). Statistical analysis by one-way ANOVA, followed by Tukey post-hoc analysis. (j) EAE clinical scores. Representative data of two independent experiments. Statistical analysis as in (FIG. 1a). (k) Cultured primary astrocytes were pre-treated for 1 h with PDMP (25 μM), LacCer (10 μM), both (LacCer+PDMP), or vehicle control (vehicle), followed by activation with LPS/IFNγ for 45 min, or left un-treated (control, Con). IRF-1 and Lamin B expression in the nuclear fraction analyzed by western blot and the degree of IRF-1 translocation to the nucleus was assessed by the ratio between the expression of IRF-1 and Lamin-B in the nuclear fractions following densitometric quantification on four independent experiments (right panel). Statistical analysis by one-way ANOVA, followed by Tukey post-hoc analysis. (l) ChIP analysis of the interaction of NF-κB, and IRF-1 with the) nos2 promoter in primary cultured astrocytes. Experimental design and data analysis as in (FIG. 4c). Data from two independent experiments (m) qPCR analysis of the expression of nos2, csf2, ccl2, ccl5, il6, and tlr2 in astrocyte cultures established from WT or IRF-1 deficient (IRF-1 KO) mice, pre-treated with LacCer or vehicle, and activated with LPS/IFNγ. […]
FIGS. 14a-g. […] (a) Cultured astrocytes were pre-treated for 1 h with PDMP (25 μM), LacCer (10 μM), both (LacCer+PDMP), or vehicle control (vehicle), followed by activation with LPS/IFNγ for 6 h, or left un-treated (control, Con). mRNA expression was analyzed 6 h following activation. qPCR analysis of the expression of cc/5, csf2, nos2, il6, H2-Aa, and tlr2 presented relative to gapdh. […]

| Compound | transcriptional response of astrocytes to LPS/IFNγ | h2-Aa, ccl5 and cxcl10 expression in B4GALT6 knocked-down astrocytes (astrocytes with shB4galt6, PDMP pre-treatment, LPS/IFNγ 6 h) | astrocyte activation, LacCer added to PDMP (LacCer 10 μM + PDMP 25 μM, LPS/IFNγ) |
| --- | --- | --- | --- |
| CCCCCCCCCC(=O)N[C@H](CN1CCOCC1)[C@H](O)c1ccccc1 [PDMP, D-threo-1-phenyl-2-decanoylamino-3-morpholino-1-propanol] | suppressed the transcriptional response | did not further suppress | – |
| lactosylceramide [LacCer] | boosted the response | – | overcame the suppressive effects of PDMP |
